Experimental data: patent US10065984B2, “Polymorphic forms of a steroid-like compound and methods for the preparation and use thereof” (Allergan, Inc., priority 2013, dated 2018)

Assays:
[1] = Storage stability of crystalline Form 1, XRPD spectrum before and after storage; format: physicochemical
Method: X-Ray Powder Diffraction patterns were collected on a Bruker D8 diffractometer using Cu Kα radiation (40 kV, 40 mA), θ-2θ goniometer, and divergence of V4 and receiving slits, a Ge monochromator and a Lynxeye detector. Samples were run under ambient conditions as flat plate specimens. The sample was gently packed into a cavity cut into polished, zero-background (510) silicon wafer. The parameters of the data collection are: • Angular range: 2 to 42°2θ • Step size: 0.05°2θ • Collection time: 0.5 s/step
A sample of the steroid-like compound in crystalline Form 1 was stored for 7 days at 40° C. and 75% relative humidity. After that time an XRPD spectrum was obtained and compared to the XRPD spectrum of the sample before the storage at the elevated temperature and humidity. […] Similarly, another sample of the steroid-like compound in crystalline Form 1 was stored for 1 year at room temperature (21° C. and uncontrolled relative humidity).

[2] = Conversion of substantially amorphous material to crystalline Form 1 at elevated temperature and/or humidity; format: physicochemical
From the text: In certain embodiments, a substantially amorphous form of the steroid-like compound contemplated for use herein can be converted into crystalline Form 1 by subjecting said amorphous material to elevated temperatures and/or elevated humidity sufficient to promote the desired conversion.
As used herein, “substantial portion thereof” refers to the major portion of the sample in question, i.e., greater than 50% of the sample, undergoes conversion from the amorphous form thereof to crystalline Form 1; in some embodiments, greater than 60% of the sample undergoes conversion from the amorphous form thereof to crystalline Form 1; in some embodiments, greater than 70% of the sample undergoes conversion from the amorphous form thereof to crystalline Form 1; in some embodiments, greater than 80% of the sample undergoes conversion from the amorphous form thereof to crystalline Form 1; in some embodiments, greater than 90% of the sample undergoes conversion from the amorphous form thereof to crystalline Form 1.

| SMILES | change in the XRPD spectrum after storage ([1]; stored for 1 year at room temperature (21° C. and uncontrolled relative humidity)) | change in the XRPD spectrum after storage ([1]; stored for 7 days at 40° C. and 75% relative humidity) | solid form conversion on exposure ([2]; 75% relative humidity at about 40° C. for about 1 week) | solid form conversion on exposure ([2]; 97% relative humidity at room temperature (about 25° C.) for about 2 weeks) | solid form conversion on exposure ([2]; temperature higher than about 110° C. for at least about 1 hour) |
| --- | --- | --- | --- | --- | --- |
| C[C@]12CCC(=O)C=C1CC[C@@H]1[C@@H]2[C@@H](O)C[C@@]2(C)[C@H]1CC[C@]2(OC(=O)c1ccccc1)C(=O)CO [crystalline Form 1] | no change | No noticeable change | – | – | – |
| C[C@]12CCC(=O)C=C1CC[C@@H]1[C@@H]2[C@@H](O)C[C@@]2(C)[C@H]1CC[C@]2(OC(=O)c1ccccc1)C(=O)CO [substantially amorphous form] | – | – | conversion of a substantial portion thereof to crystalline Form 1 | conversion of a substantial portion thereof to crystalline Form 1 | conversion of a substantial portion thereof to crystalline Form 1 |
